Test results taken from ChEMBL document CHEMBL1201862, “PubChem BioAssay data set” (2004).
Calls of active or inactive are those of the source.

Assays:
Vero = assay: viability of Vero cells under compound – cytotoxicity control for flavivirus capping enzyme inhibitors (AID 588742); type: functional; details: Chlorocebus sabaeus
[1] = target: T1, Sentrin-specific protease 8 (Homo sapiens, UniProt Q96LD8); type: functional
T1 sequence (Q96LD8 whole entry): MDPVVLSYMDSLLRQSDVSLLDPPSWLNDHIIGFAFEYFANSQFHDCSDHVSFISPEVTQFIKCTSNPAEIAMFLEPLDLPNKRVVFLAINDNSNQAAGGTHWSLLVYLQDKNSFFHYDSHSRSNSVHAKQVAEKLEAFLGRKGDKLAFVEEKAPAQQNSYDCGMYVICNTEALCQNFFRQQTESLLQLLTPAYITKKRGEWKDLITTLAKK

[2] = target: Glucose-6-phosphate 1-dehydrogenase (Homo sapiens, UniProt P11413); assay: inhibition of Homo sapiens G6PD, dose series – biochemical, fluorescence, selectivity assay for P. falciparum G6PD inhibitor project, dose response (AID 504792); type: functional
[3] = target: T1, Sentrin-specific protease 8; type: functional; remark: listed apart in the source
Nonstructural protein 1 = Nonstructural protein 1 (Influenza A virus, UniProt Q194T2); type: functional, Influenza A virus (A/California/07/2009(H1N1))
[4] = target: T2, Polyadenylate-binding protein 1 (Homo sapiens, UniProt P11940); assay: MLLE binding blockers, Cy5 peptide tracer – biochemical, fluorescence polarization, Cy5-PAM2 peptide, secondary, miRNA deadenylation inhibitor project, dose response (AID 602260); type: functional; details: read-out: IC50_Mean
[5] = target: T2, Polyadenylate-binding protein 1; assay: MLLE domain peptide-binding blockers, IC50 – biochemical, fluorescence polarization, FITC-PAM2 peptide, dose response (AID 602259); type: functional; details: read-out: IC50_Mean

T2 sequence (P11940 whole entry, the tested form may be a part): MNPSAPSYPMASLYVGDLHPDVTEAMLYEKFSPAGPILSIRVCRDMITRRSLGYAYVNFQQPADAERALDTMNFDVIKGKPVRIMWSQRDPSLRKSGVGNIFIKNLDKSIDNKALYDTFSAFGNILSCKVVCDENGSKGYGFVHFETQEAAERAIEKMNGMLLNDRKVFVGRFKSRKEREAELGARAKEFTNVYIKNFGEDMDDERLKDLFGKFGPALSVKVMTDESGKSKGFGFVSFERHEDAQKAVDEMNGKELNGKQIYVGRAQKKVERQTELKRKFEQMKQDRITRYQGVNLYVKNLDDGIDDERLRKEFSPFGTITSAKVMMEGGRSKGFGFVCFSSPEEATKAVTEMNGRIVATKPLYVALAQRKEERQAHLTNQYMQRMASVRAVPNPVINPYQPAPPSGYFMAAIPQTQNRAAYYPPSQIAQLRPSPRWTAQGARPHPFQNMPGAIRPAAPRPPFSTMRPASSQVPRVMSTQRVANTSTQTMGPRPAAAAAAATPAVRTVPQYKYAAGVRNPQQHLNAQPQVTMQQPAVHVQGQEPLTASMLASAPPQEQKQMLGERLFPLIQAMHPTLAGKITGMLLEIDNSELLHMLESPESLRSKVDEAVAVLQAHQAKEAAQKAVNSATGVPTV
Glucose-6-phosphate 1-dehydrogenase, sequence (P11413 whole entry): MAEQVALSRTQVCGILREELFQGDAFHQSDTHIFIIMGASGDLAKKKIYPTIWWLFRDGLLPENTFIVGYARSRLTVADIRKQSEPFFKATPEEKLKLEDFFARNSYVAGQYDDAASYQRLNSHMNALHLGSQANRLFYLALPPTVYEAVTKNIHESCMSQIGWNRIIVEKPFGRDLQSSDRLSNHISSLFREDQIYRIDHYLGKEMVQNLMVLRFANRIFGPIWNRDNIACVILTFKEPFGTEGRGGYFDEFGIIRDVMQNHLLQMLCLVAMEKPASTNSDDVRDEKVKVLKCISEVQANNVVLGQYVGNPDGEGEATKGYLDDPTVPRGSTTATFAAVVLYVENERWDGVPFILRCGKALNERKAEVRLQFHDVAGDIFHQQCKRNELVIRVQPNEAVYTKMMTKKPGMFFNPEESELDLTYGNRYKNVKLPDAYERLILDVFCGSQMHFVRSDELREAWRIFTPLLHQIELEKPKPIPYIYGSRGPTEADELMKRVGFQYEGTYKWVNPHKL
Nonstructural protein 1, sequence (Q194T2 whole entry): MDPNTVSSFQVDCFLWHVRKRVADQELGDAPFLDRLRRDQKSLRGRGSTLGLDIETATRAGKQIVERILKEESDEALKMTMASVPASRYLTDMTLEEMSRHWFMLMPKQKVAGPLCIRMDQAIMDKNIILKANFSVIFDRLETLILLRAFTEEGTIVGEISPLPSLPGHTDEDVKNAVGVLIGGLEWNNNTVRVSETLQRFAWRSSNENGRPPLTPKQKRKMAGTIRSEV

Q: What does the source list for `Cc1cnc(C=NNC(N)=S)c2cccc(N)c12`?
A: CC50 (Vero): 4.93 µM (active); IC50 [1]: 8.74 µM (active); IC50 [2]: 32.1 µM (inactive); IC50 [3]: 2.83 µM (active); IC50 (Nonstructural protein 1): 2.39 µM (active); IC50 [4]: > 66 µM (inactive); IC50 [5]: > 66 µM (inactive)
